# Test results as given in PubChem BioAssay (NCI).
#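 Assay format: 96-well plates, 48-hour exposure. GI50 marks 50% less growth. TGI: total growth inhibition.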
# Tests used:
# Assay in all cases: growth of human tumour cells (NCI), 48 h
# LOX IMVI melanoma = tested on: LOX IMVI melanoma
# SF-268 CNS = tested on: SF-268 CNS
# IGROV1 ovarian = tested on: IGROV1 ovarian
# HCT-116 colon = tested on: HCT-116 colon
# CAKI-1 renal = tested on: CAKI-1 renal
# SNB-19 CNS = tested on: SNB-19 CNS
# NCI-H460 lung = tested on: NCI-H460 lung
# MOLT-4 leukemia = tested on: MOLT-4 leukemia
# TK-10 renal = tested on: TK-10 renal
# M14 melanoma = tested on: M14 melanoma
Structure (SMILES),GI50 (LOX IMVI melanoma),TGI (LOX IMVI melanoma),GI50 (SF-268 CNS),TGI (SF-268 CNS),GI50 (IGROV1 ovarian),TGI (IGROV1 ovarian),GI50 (HCT-116 colon),TGI (HCT-116 colon),GI50 (CAKI-1 renal),TGI (CAKI-1 renal),GI50 (SNB-19 CNS),TGI (SNB-19 CNS),GI50 (NCI-H460 lung),TGI (NCI-H460 lung),GI50 (MOLT-4 leukemia),TGI (MOLT-4 leukemia),GI50 (TK-10 renal),TGI (TK-10 renal),GI50 (M14 melanoma),TGI (M14 melanoma)
COc1ccc([C@H]2O[C@@H](CO)C[C@]2(O)c2ccc(OC)cc2)cc1,> 100 µM,> 100 µM,> 100 µM,> 100 µM,> 100 µM,> 100 µM,> 100 µM,> 100 µM,> 100 µM,> 100 µM,> 100 µM,> 100 µM,> 100 µM,> 100 µM,> 100 µM,> 100 µM,> 100 µM,> 100 µM,,
COc1ccc(-c2ccc(-c3ccc(C(=N)N)cn3)s2)cc1Cl,1.63 µM,3.08 µM,1.8 µM,3.43 µM,1.57 µM,3.28 µM,1.84 µM,3.82 µM,1.65 µM,3.03 µM,1.73 µM,3.61 µM,1.61 µM,3.02 µM,,,1.79 µM,3.41 µM,1.81 µM,3.44 µM
O=[N+]([O-])c1ccc(Cl)c(C2SCc3nc4ccccc4n32)c1 (stereo not drawn),,,,> 100 µM,,> 100 µM,,> 100 µM,,76.1 µM,,> 100 µM,,81.1 µM,,> 100 µM,,> 100 µM,,
CCC1(CN(C)C)CC/C(=C\c2ccc3c(c2)OCO3)C1=O (stereo not drawn),,> 100 µM,,> 100 µM,,> 100 µM,,> 100 µM,,> 100 µM,,> 100 µM,,,,> 100 µM,,> 100 µM,,> 100 µM
CCOC(=O)C(C)(C)Oc1ccc2c(-c3ccc(Cl)cc3)cc(=O)oc2c1,,> 100 µM,,> 100 µM,,> 100 µM,,> 100 µM,,,,> 100 µM,,> 100 µM,,> 100 µM,,> 100 µM,,> 100 µM
CCOC(=O)C(C[Si](C)(C)C)P(=O)(OCC)OCC (stereo not drawn),,> 100 µM,,> 100 µM,,> 100 µM,,> 100 µM,,> 100 µM,,,,> 100 µM,,> 100 µM,,> 100 µM,,> 100 µM
CC1(C)OCN(c2ccc(Cl)cc2)Cn2c1nc1ccccc12,,> 100 µM,,> 100 µM,,> 26.7 µM,,> 100 µM,,,,> 100 µM,,> 100 µM,,> 100 µM,,> 100 µM,,> 100 µM
O=Nc1c(O)ccc2ccccc12,2.36 µM,7.51 µM,3.04 µM,10.6 µM,2.15 µM,5.78 µM,2.25 µM,5.87 µM,3.1 µM,12.1 µM,14.7 µM,28.2 µM,14.2 µM,35.7 µM,3.58 µM,28.6 µM,,,1.92 µM,3.84 µM
COc1ccc(/C=C2\N=C3SC=C(N)N3C2=O)cc1,0.964 µM,2.43 µM,1.82 µM,7.29 µM,0.499 µM,2.39 µM,1.11 µM,2.61 µM,1.32 µM,7.01 µM,3.32 µM,17 µM,0.582 µM,14 µM,0.28 µM,2.91 µM,,,1.21 µM,4.73 µM
COc1ccccc1-n1c(SCc2cc(OC)c(OC)c(OC)c2)nc2ccc(Cl)cc2c1=O,5.16 µM,> 100 µM,23.1 µM,> 100 µM,10.9 µM,> 100 µM,2.53 µM,> 100 µM,2.8 µM,> 100 µM,,,3.34 µM,> 100 µM,3.05 µM,> 100 µM,48.6 µM,> 100 µM,2.22 µM,> 100 µM
c1ccc(-c2nc(N3CCNCC3)c3nc(-c4ccccc4)oc3n2)cc1,1.66 µM,3.17 µM,1.73 µM,3.46 µM,1.65 µM,3.14 µM,1.25 µM,2.9 µM,1.55 µM,2.94 µM,1.74 µM,3.34 µM,1.73 µM,3.38 µM,,,1.67 µM,3.32 µM,1.96 µM,3.71 µM
CC(=O)Nc1ccc(-c2nnc(SCC(=O)Nc3ccc(C)cc3)o2)cc1,,31.8 µM,,44.2 µM,,28.6 µM,,29.1 µM,,24.9 µM,,,,42.7 µM,,> 100 µM,,53.6 µM,,29.8 µM
O=C(/C=C/c1cccc(Cl)c1)c1ccc(Cl)cc1Cl,1.88 µM,4.69 µM,10.2 µM,25.1 µM,7.56 µM,> 50 µM,20.4 µM,> 50 µM,8.94 µM,18.2 µM,7.42 µM,17.1 µM,13.2 µM,> 50 µM,,,8.8 µM,18.8 µM,14 µM,31 µM
CC(=O)OC1CCC2(C)C(=CC(C3C=C4CC(OC(C)=O)CCC4(C)C4=C3C3CC5OC6(CCC(C)CO6)C(C)C5C3(C)CC4)C3=C2CCC2(C)C3CC3OC4(CCC(C)CO4)C(C)C32)C1 (stereo not drawn),,30.1 µM,,23.5 µM,,23.6 µM,,28.4 µM,,32.1 µM,,30.4 µM,,,,4.7 µM,,27.6 µM,,26.9 µM
CC(C)C(N)(C(=O)O)c1ccccc1 (stereo not drawn),,> 100 µM,,> 100 µM,,> 100 µM,,> 100 µM,,> 100 µM,,> 100 µM,,> 100 µM,,,,> 100 µM,,> 100 µM
COc1ccc2c(c1)OC13Oc4cc(OC)ccc4C=C1CCCC3=C2,> 100 µM,> 100 µM,> 100 µM,> 100 µM,> 100 µM,> 100 µM,,,,,> 100 µM,> 100 µM,> 100 µM,> 100 µM,5.81 µM,> 100 µM,> 100 µM,> 100 µM,> 100 µM,> 100 µM
CC[C@@H]1OC2(C)CC(S(=O)(=O)c3ccccc3)CC1O2 (stereo partly drawn),,,,> 100 µM,,> 100 µM,,> 100 µM,,> 100 µM,,> 100 µM,,> 100 µM,,> 100 µM,,,,> 100 µM
COc1cc(C2C(C(=O)Nc3ccccc3)=C(C)NC(C)=C2C(=O)Nc2ccccc2)ccc1O,,,,> 100 µM,,> 100 µM,,> 100 µM,,,,> 100 µM,,> 100 µM,,> 100 µM,,> 100 µM,,
